Test results taken from patent US20230365537A1, “POLO LIKE KINASE 4 INHIBITORS” (ORIC Pharmaceuticals, Inc., priority 2021, published 2023).

Legend:
[1] = target: human recombinant Aurora A (Homo sapiens (Human), UniProt O14965); experiment: Aurora A Kinase Biochemical Assay (ADP-Glo); conditions: ratio of Aurora A IC50 to PLK4 IC50 (selectivity)
[2] = target: human recombinant Aurora B (Homo sapiens (Human), UniProt Q96GD4); experiment: Aurora B Kinase Biochemical Assay (ADP-Glo); conditions: ratio of Aurora B IC50 to PLK4 IC50 (selectivity)
Summary of the method: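 Recombinant human Aurora B (20 nM in pH 7.5 HEPES buffer with MgCl2, EGTA, DTT, Brij-35, BSA) preincubated with compound 15 min at RT. ADP formed quantified by ADP-Glo luminescence after ATP depletion (40 min) and detection (30 min). IC50 from four-parameter non-linear regression.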

human recombinant PLK4 = human recombinant PLK4 (Homo sapiens (Human), UniProt O00444); experiment: PLK4 Biochemical Assay (ADP-Glo); conditions: 0.5 nM PLK4, 8.0 µM ATP, 4.7 µM MBP, 6 hours at RT
Summary of the method: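 Recombinant human PLK4 (added at 1.0 nM) was preincubated 15 min at RT with compound in 50 mM HEPES pH 7.5, 10 mM MgCl2, 1 mM EGTA, 1 mM DTT, 0.01% Brij-35, 0.01% BSA. ADP formed was detected by ADP-Glo luminescence (40 min ATP depletion, 30 min detection). IC50 came from a four-parameter fit.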

CHP-134 cells = experiment: CHP134 CellTiter-Glo (CTG) Assay; type: cell-based; conditions: Homo sapiens, 5 days, viable cells by CellTiter-Glo
Description: Cells were seeded (200 cells/well) in 384-well plates for 16 hours. On day two, nine serial 1:3 compound dilutions were made in DMSO in a 96-well plate. The compounds were then further diluted into growth media using a BRAVO robot (Agilent, Santa Clara, CA). The diluted compounds were then added to quadruplicate wells in the 384-well cell plate and incubated at 37° C. and 5% CO2. After 5 days, relative numbers of viable cells were measured by luminescence using CellTiter-Glo® (Promega) according to the manufacturer’s instructions and read on a SPARK Multimode Microplate Reader (Tecan, Mannedorf Switzerland). The IC50 calculations for the values reported in Table 2 were carried out using Prism 6.0 software (GraphPad, San Diego).

human recombinant Aurora A, sequence (O14965 whole entry): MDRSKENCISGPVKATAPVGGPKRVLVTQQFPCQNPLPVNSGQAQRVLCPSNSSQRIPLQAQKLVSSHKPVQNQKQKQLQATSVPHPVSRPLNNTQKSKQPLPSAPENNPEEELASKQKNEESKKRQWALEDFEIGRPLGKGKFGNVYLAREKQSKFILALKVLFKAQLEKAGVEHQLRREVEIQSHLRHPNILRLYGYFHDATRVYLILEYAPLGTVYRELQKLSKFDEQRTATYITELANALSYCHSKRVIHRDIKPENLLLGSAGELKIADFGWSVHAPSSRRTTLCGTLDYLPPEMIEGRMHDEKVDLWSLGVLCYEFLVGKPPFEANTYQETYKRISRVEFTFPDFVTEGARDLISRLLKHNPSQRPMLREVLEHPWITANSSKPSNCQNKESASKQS
human recombinant Aurora B, sequence (Q96GD4 whole entry): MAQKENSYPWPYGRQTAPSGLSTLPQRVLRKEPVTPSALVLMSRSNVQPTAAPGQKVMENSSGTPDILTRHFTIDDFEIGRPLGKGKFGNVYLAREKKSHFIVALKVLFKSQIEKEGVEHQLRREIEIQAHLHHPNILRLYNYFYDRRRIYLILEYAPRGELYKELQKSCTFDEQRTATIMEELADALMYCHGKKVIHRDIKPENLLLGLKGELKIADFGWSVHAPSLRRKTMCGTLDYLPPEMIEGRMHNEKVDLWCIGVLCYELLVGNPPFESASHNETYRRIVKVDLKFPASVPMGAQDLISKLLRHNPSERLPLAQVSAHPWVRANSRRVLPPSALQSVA
human recombinant PLK4, sequence (O00444 whole entry): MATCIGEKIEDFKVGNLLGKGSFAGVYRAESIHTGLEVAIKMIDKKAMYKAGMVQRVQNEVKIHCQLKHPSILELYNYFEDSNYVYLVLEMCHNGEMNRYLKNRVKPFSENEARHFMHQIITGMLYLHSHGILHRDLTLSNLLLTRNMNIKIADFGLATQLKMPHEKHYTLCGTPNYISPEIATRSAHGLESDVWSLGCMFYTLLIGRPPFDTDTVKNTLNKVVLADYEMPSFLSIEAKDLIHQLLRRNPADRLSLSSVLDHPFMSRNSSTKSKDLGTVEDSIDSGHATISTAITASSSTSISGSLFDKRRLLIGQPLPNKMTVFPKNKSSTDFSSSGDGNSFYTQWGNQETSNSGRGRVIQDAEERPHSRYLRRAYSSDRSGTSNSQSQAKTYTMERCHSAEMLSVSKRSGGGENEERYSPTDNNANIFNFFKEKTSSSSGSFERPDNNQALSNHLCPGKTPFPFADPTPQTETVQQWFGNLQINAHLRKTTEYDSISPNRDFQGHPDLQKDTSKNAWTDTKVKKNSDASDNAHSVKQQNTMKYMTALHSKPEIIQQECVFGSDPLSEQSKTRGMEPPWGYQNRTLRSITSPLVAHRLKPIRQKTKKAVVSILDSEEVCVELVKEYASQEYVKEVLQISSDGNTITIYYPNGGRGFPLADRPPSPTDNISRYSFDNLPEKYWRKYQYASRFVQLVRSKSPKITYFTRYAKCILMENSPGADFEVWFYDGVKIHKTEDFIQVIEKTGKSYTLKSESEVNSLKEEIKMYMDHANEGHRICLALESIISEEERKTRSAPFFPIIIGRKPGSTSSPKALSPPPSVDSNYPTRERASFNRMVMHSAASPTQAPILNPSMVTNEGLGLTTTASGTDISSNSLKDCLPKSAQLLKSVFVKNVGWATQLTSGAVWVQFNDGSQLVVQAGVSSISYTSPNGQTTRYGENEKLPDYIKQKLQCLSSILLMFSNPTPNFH

Row | Compound | [Aurora A IC50 (nM)]/[PLK4 IC50 (nM)] [1] | [Aurora B IC50 (nM)]/[PLK4 IC50 (nM)] [2] | IC50 (human recombinant PLK4) [nM] | IC50 (CHP-134 cells; CHP-134, 120 h) [nM] | IC50 (CHP-134 cells; 120 h) [nM]
1 | COc1ccc2c(c1)[C@]1(C[C@H]1c1ccc3c(Nc4ncnc(N5CC(O)C5)c4Cl)n[nH]c3c1)C(=O)N2 [Example 46, (1R,2S)-2-(3-{[5-chloro-6-(3-hydroxyazetidin-1-yl)pyrimidin4-yl]amino}-1H-indazol-6-yl)-5′-methoxyspiro[cyclopropane-1,3′-indol]-2′(1′H)-one] | 2542.642 | 135.8985 | 2.52 | 1430 | 
2 | COc1ccc2c(c1)[C@]1(C[C@H]1c1ccc3c(Nc4ncnc(N5CC(OC)C5)c4Cl)n[nH]c3c1)C(=O)N2 [Example 47, (1R,2S)-2-(3-{[5-chloro-6-(3-methoxyazetidin-1-yl)pyrimidin-4-yl]amino}-1H-indazol-6-yl)-5′-methoxyspiro[cyclopropane-1,3′-indol]-2′(1′H)-one] | 1879.416 | 104.3011 | 1.3 | 610 | 
3 | COc1ccc2c(c1)[C@]1(C[C@H]1c1ccc3c(Nc4ncnc(N5CCS(=O)(=O)CC5)c4OC)n[nH]c3c1)C(=O)N2 [Example 54, (1R,2S)-2-(3-((6-(1,1-dioxidothiomorpholino)-5-methoxypyrimidin-4-yl)amino)-1H-indazol-6-yl)-5′-methoxyspiro[cydopropane-1,3′-indolin]-2′-one] | 1504.212 | 117.2684 | 33.2 | 10000 | 
4 | COc1ccc2c(c1)[C@]1(C[C@H]1c1ccc3c(Nc4nc(CCO)cnc4OC)n[nH]c3c1)C(=O)N2 [Example 56, (1R,2S)-2-(3-{[6-(2-hydroxyethyl)-3-methoxypyrazin-2-yl]amino}-1H-indazol-6-yl)-5′-methoxyspiro[cyclopropane-1,3′-indol]-2′(1′H)-one] | 1047.694 | 423.7686 | 3.84 | 2680 | 
5 | COc1ccc2c(c1)[C@]1(C[C@H]1c1ccc3c(Nc4nc(C)nc(N5CCS(=O)(=O)CC5)c4Cl)n[nH]c3c1)C(=O)N2 [Example 58, 4-[5-chloro-6-({6-[(1R,2S)-5′-methoxy-2′-oxo-1,2′-dihydrospiro[cyclopropane-1,3′-indol]-2-yl]-1H-indazol-3-yl}amino)-2-methylpyrimidin-4-yl]-1λ6-thiomorpholine-1,1-dione] | 1393.782 | 140.6736 | 2.32 | 157 | 
6 | COc1ccc2c(c1)[C@]1(C[C@H]1c1ccc3c(Nc4nc(C#N)nc(N5CCOCC5)c4OC)n[nH]c3c1)C(=O)N2 [Example 61, 5-methoxy-4-({6-[(1R,2S)-5′-methoxy-2′-oxo-1’,2′-dihydrospiro[cyclopropane-1,3′-indol]-2-yl]-1H-indazol-3-yl}amino)-6-(morpholin-4-yl)pyrimidme-2-carbonitrile] | 588.8148 | 955.0539 | 9.74 |  | 2380
7 | COc1ccc2c(c1)[C@]1(C[C@H]1c1ccc3c(Nc4nc(C#N)nc(N5CCS(=O)(=O)CC5)c4OC)n[nH]c3c1)C(=O)N2 [Example 62, 4-(l,l-dioxidothiomorpholino)-5-methoxy-6-((6-((lR,2S)-5′-methoxy-2′-oxospiro[cyclopropane-1,3′-indolin]-2-yl)-1H-indazol-3-yl)amino)pyrimidine-2-carbonitrile] | 540.9225 | 946.7771 | 16.9 | 10000 | 
8 | COc1ccc2c(c1)[C@]1(C[C@H]1c1ccc3c(Nc4nc(CCO)nc(N5CCOCC5)c4OC)n[nH]c3c1)C(=O)N2 [Example 68, (1R,2S)-2-(3-{[2-(2-hydroxyethyl)-5-methoxy-6-(morpholin-4-yl)pyrimidin-4-yl]amino}-1H-indazol-6-yl)-5′-methoxyspiro[cyclopropane-1,3′-indol]-2′(1′H)-one] | 4761.518 | 1347.967 | 7.38 | 2480 | 
9 | COc1ccc2c(c1)[C@]1(C[C@H]1c1ccc3c(Nc4nc(C5CC5)nc(N5CCS(=O)(=O)CC5)c4OC)n[nH]c3c1)C(=O)N2 [Example 69, 4-[2-cyclopropyl-5-methoxy-6-({6-[(1R,2S)-5′-methoxy-2′-oxo-1’,2′-dihydrospiro[cyclopropane-1,3′-indol]-2-yl]-1H-indazol-3-yl}amino)pyrimidin-4-yl]-1λ6-thiomorpholine-1,1-dione] | 1785.978 | 480.7112 | 2.98 | 686 | 
10 | COc1ccc2c(c1)[C@]1(C[C@H]1c1ccc3c(Nc4nc(C5CC5)nc(N5CCS(=O)(=O)CC5)c4Cl)n[nH]c3c1)C(=O)N2 [Example 70, 4-[5-chloro-2-cyclopropyl-6-({6-[(1R,2S)-5′-methoxy-2′-oxo-1′,2′-dihydrospiro[cyclopropan-1,3′-indol]-2-yl]-1H-indazol-3-yl}amino)pyrimidin-4-y1]-1λ6-thiomorpholine-1,1-dione] | 1376.93 | 512.7157 | 1.1 | 80.3 | 

Now from value to compound, other results behind:

Row | [Aurora A IC50 (nM)]/[PLK4 IC50 (nM)] [1] | [Aurora B IC50 (nM)]/[PLK4 IC50 (nM)] [2] | IC50 (human recombinant PLK4) [nM] | Compound | IC50 (CHP-134 cells; CHP-134, 120 h) [nM] | IC50 (CHP-134 cells; 120 h) [nM]
11 | 2257.47 | 471.4128 | 2.71 | COc1ccc2c(c1)[C@]1(C[C@H]1c1ccc3c(Nc4nc(C)nc(N5CCOCC5)c4OC)n[nH]c3c1)C(=O)N2 [Example 41, (1R,2S)-5′-methoxy-2-(3-{[5-methoxy-2-methyl-6-(morpholin-4-yl)pyrimidin-4-yl]amino}-1H-indazol-6-yl)spiro[cyclopropane-1,3′-indol]-2′(1′H)-one] | 844 | 
12 | 1948.123 | 292.3406 | 3.28 | COc1ccc2c(c1)[C@]1(C[C@H]1c1ccc3c(Nc4nc(Cl)nc(N5CCOCC5)c4OC)n[nH]c3c1)C(=O)N2 [Example 48, (1R,2S)-2-(3-{[2-chloro-5-methoxy-6-(morpholin-4-yl)pyrimidin-4-yl]amino}-1H-indazol-6-yl)-5′-metboiyspiro[cyclopropane-1,3′-indol]-2′(1′H)-one] | 742 | 
13 | 3031.656 | 1241.883 | 1.23 | COc1ccc2c(c1)[C@]1(C[C@H]1c1ccc3c(Nc4nc(C5CC5)nc(N5CCOCC5)c4OC)n[nH]c3c1)C(=O)N2 [Example 51, (1R,2S)-2-(3-1[2-cyclopropyl-5-methoxy-6-(morpholin-4-yl)pyrimidin-4-yl]aminol-1H-indezol-6-yl)-5′-methoxyapiro[cyclopropane-1,3′-indol]-2′(1′H)-one] | 143 | 
14 | 2009.699 | 55.0706 | 7.01 | COc1ccc2c(c1)[C@]1(C[C@H]1c1ccc3c(Nc4ncnc(N5C[C@@H](C)O[C@@H](C)C5)c4OC)n[nH]c3c1)C(=O)N2 [Example 52, (lR,2S)-2-[3-({6-[(2R,6S)-2,6-dimethylmorpholin-4-yl]-5-methoxypyrimidin-4-yl}amino)-1H-indazol-6-yl]-5′-methoxyspiro[cydopropane-1,3′-indol]-2′(1′H)-one] | 2260 | 
15 | 3527.559 | 831.2992 | 5.08 | COc1ccc2c(c1)[C@]1(C[C@H]1c1ccc3c(Nc4nc(C)nc(N5CCS(=O)(=O)CC5)c4OC)n[nH]c3c1)C(=O)N2 [Example 57, 4-[5-methoxy-6-({6-[(1R,2S)-5′-methoxy-2′-oxo-1′,2′-dihydrospiro[cyclopropane-1,3′-indol]-2-yl]-1H-indazol-3-yl}amino)-2-methylpyrimidin-4-yl]-1λ6-thiomorpholine-1,1-dione] | 3960 | 
16 | 4976.155 | 499.9255 | 1.34 | COc1ccc2c(c1)[C@]1(C[C@H]1c1ccc3c(Nc4nc(C)nc(N5C[C@@H](C)O[C@@H](C)C5)c4OC)n[nH]c3c1)C(=O)N2 [Example 67, (1R,2S)-2-[3-({6-[(2R,6S)-2,6-dimethylmorpholin-4-yl]-5-methoxy-2-methylpyrimidin-4-yl}amino)-1H-indazol-6-yl]-5′-methoxyspiro[cyclopropane-1,3′-indol]-2′(1′H)-one] | 4390 | 
17 | 420.9667 | 38.67 | 3.06 | COc1ccc2c(c1)[C@]1(C[C@H]1c1ccc3c(Nc4nc(C)cnc4OC)n[nH]c3c1)C(=O)N2 [Example 71, (1R,2S)-5′-methoxy-2-{3-[(3-methoxy-6-methylpyrazin-2-yl)amino]-1H-indazol-6-yl}spiro[cyclopropane-1,3′-indol]-2′(1′H)-one] | 989 | 
